Laboratory results published in PMC11148045, “Structural basis for recognition of 26RFa by the pyroglutamylated RFamide peptide receptor” (Cell Discovery, 2024).
No end group written: not given here.

Assays:
KISS1R (WT) = target: T1, KISS1R (WT) (Homo sapiens, UniProt Q969F8); assay: KP-10-induced calcium mobilization, wild-type receptor; assay type: cell-based; conditions: HEK293, Fluo-4, mean ± S.E.M., n ≥ 3
T1 construct: expressed in transfected cells; host or cells: HEK293, transient transfection by electroporation
T1 sequence (Q969F8 whole entry, species assumed): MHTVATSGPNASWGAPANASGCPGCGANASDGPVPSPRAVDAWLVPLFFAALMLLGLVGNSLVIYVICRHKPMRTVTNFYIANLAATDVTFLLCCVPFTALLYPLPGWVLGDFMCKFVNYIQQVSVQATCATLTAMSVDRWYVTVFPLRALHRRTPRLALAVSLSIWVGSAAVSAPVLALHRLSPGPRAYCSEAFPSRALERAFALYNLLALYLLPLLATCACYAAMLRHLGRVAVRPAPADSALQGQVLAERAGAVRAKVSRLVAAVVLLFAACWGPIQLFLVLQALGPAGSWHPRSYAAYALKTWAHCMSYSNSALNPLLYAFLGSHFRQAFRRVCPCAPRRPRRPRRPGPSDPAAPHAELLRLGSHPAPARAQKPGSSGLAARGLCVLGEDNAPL

KISS1R mutants = target: T2, KISS1R mutants (Homo sapiens, UniProt Q969F8, E193A/H309A/Q122A); assay: KP-10-induced calcium mobilization, receptor mutants; assay type: cell-based; conditions: HEK293, Fluo-4, mean ± S.E.M., n ≥ 3
T2 construct: expressed in transfected cells; host or cells: HEK293, transient transfection by electroporation
T2 sequence (Q969F8 whole entry Q122A/E193A/H309A): as the sequence (Q969F8 whole entry, species assumed) above, with Q122A, E193A, H309A counted along it

NPY1R and NPY4R = conditions: cited from earlier work; for role of hydrogen bond of Tyr36 with Q^5.46 in activity: NPY1R and NPY4R
Excerpt: Specifically, Arg25 and Arg35 in 26RFa and NPY/PP are exposed to a conserved polar environment that includes residues E^45.52, T^5.39, and D/E^6.59 in QRFPR and NPYRs. However, subtle differences exist in the special binding interactions between these arginines and conserved polar residues (Fig. 4d–f). Side chains of Arg35 in NPY/PP form a conserved salt bridge with D^6.59 and a hydrogen bond with T^5.39 (NPY1R and NPY4R) or a salt bridge with E^45.52 (NPY2R) (Fig. 4e, f). In 26RFa, Arg25 retains its salt bridge with E203^45.52 but fails to build a salt bridge with E297^6.59 (Fig. 3b). It is p ... || Phe26 in 26RFa and Tyr36 in NPY/PP show distinct binding characteristics for QRFRP and NPYRs, respectively. […] (Fig. 4e). However, in NPY2R, this hydrogen bond is absent due to the substitution of glutamine with leucine at position 5.46, which lacks a hydrogen bond donor (Fig. 4c, f). Similarly, QRFPR also has a leucine at position 5.46, which cannot form a corresponding hydrogen bond with Phe26 in 26RFa. Furthermore, in contrast to the notable impact of Q^5.46 on the NP ...

QRFPR = conditions: cited from earlier work
Excerpt: cDNA encoding the precursor or orthologue of 26RFa is detected in vertebrates, from fish[16], and phasianidae, to mammals. In humans, 26RFa and its N-terminal extended mature peptide 43RFa are extracted from the human brain, and mRNA of QRFPR is detected in the hypothalamus, vestibular nuclei, and other areas of the central nervous system. QRFPR is also detected in some peripheral organs[18],[19]. Both 26RFa and 43RFa are endogenous ligands for QRFPR (GPR103)[4],[18]. The amino acid sequences of 26RFa are conserved among mammalian species, with 26RFa from rats being slightly mor ... || Considerable efforts have been dedicated to elucidating the recognition mechanism of 26RFa by QRFPR. […] This segment served as a molecular scaffold for the development of low molecular weight peptides with enhanced potency and increased stability[21],[28]. […] Globally, the 26RFa segment (Gly20–Phe24) leans to TM2, but is far from TMs 5–7, leaving a large portion of unoccupied space lined by TMs 5–7 (Fig. 3a). Two glycines (Gly20, Gly21) are compactly packed into a crevice composed of residues on ECL1, ECL2, and the N-terminus (Fig. 3a). They moderately impact 26RFa activity, as substit ... || (+ 2 further places)

PrRPR (WT) = target: T3, PrRPR (WT) (Homo sapiens, UniProt P49683); assay: PrRP-20-induced calcium mobilization, wild-type receptor; assay type: cell-based; conditions: HEK293, Fluo-4, mean ± S.E.M., n ≥ 3
T3 construct: expressed in transfected cells; host or cells: HEK293, transient transfection by electroporation
T3 sequence (P49683 whole entry, species assumed): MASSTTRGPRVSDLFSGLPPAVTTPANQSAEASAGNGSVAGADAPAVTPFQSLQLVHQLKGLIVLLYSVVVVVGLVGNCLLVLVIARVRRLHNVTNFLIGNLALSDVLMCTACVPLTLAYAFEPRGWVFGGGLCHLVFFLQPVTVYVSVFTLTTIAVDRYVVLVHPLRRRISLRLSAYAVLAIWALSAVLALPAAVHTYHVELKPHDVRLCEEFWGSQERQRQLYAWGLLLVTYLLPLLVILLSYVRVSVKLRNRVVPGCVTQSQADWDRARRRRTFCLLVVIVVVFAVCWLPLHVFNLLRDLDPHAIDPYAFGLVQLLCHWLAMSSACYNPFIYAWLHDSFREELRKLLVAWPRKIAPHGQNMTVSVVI
Method: (§1) The gene encoding the WT QRFPR, PrPRR, KISS1R, NPFF1R, or NPFF2R was subcloned into the pcDNA3.0 vector with the addition of an N-terminal HA tag. All of the mutations used for functional studies were generated by QuickChange PCR and verified by DNA sequencing.
(§2) HEK293 cells were obtained from ATCC (Manassas, VA, USA) and cultured in DMEM supplemented with 10% (v/v) FBS, 100 mg/L penicillin, and 100 mg/L streptomycin in 5% CO2 at 37 °C. For transient transfection, ~2.5 × 10^6 cells were mixed with 2 µg plasmids in 200 µL transfection buffer, and electroporation was carried out with a Scientz-2C electroporation apparatus (Scientz Biotech, Ningbo, China). The experiments were carried out 24 h after transfection.
For QRFPR, PrRPR, and KISS1R, HEK293 cells transfected with WT receptor or its mutants were seeded at a density of 4 × 10^4 per well into 96-well culture plates and incubated for 24 h at 37 °C in 5% CO2. […] After washing, cells were added with 50 μL HBSS and incubated at room temperature for 10 min, then 25 μL agonist buffer was dispensed into the well using a FlexStation III microplate reader (Molecular Devices), and intracellular calcium change was recorded at an excitation wavelength of 485 nm and an emission wavelength of 525 nm. EC50 and Emax values for each curve were calculated by Prism 8.0 software (GraphPad Software).

PrRPR mutants = target: T4, PrRPR mutants (Homo sapiens, UniProt P49683, D302A/E213A/H321A/Q141A); assay: PrRP-20-induced calcium mobilization, receptor mutants; assay type: cell-based; conditions: HEK293, Fluo-4, mean ± S.E.M., n ≥ 3
T4 construct: expressed in transfected cells; host or cells: HEK293, transient transfection by electroporation
T4 sequence (P49683 1-370 Q141A/E213A/D302A/H321A): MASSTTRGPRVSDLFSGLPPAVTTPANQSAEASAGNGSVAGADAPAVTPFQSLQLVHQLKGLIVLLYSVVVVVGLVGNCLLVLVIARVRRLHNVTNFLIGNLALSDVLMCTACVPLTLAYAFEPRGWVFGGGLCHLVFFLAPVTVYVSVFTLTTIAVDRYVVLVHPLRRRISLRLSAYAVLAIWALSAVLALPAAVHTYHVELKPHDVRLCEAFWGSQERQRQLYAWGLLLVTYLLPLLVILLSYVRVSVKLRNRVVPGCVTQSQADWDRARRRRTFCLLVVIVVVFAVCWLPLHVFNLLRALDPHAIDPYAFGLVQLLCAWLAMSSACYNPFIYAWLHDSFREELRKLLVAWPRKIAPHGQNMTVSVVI
Method: as §1, §2
For QRFPR, PrRPR, and KISS1R, HEK293 cells transfected with WT receptor or its mutants were seeded at a density of 4 × 10^4 per well into 96-well culture plates and incubated for 24 h at 37 °C in 5% CO2. For NPFF1R and NPFF2R, plasmids were transfected into HEK293 cells stably expressing Gα16. On the next day, cells were incubated with 2 μmol/L Fluo-4 AM in HBSS supplemented with 5.6 mmol/L D-glucose and 250 μmol/L sulfinpyrazone at 37 °C for 45 min. After washing, cells were added with 50 μL HBSS and incubated at room temperature for 10 min, then 25 μL agonist buffer was dispensed into the well using a FlexStation III microplate reader (Molecular Devices), and intracellular calcium change was recorded at an excitation wavelength of 485 nm and an emission wavelength of 525 nm. EC50 and Emax values for each curve were calculated by Prism 8.0 software (GraphPad Software).

CC(C)C[C@H](NC(=O)CNC(=O)[C@H](Cc1ccccc1)NC(=O)[C@H](CO)NC(=O)[C@H](CC(N)=O)NC(=O)[C@H](Cc1c[nH]c2ccccc12)NC(=O)[C@H](CC(N)=O)NC(=O)[C@@H](N)Cc1ccc(O)cc1)C(=O)N[C@@H](CCCNC(=N)N)C(=O)N[C@@H](Cc1ccccc1)C(N)=O [KP-10]
EC50 (KISS1R (WT)): 4.27 nM
Emax (KISS1R (WT)): 100 ± 1.2%
Emax (KISS1R mutants; HEK293, KISS1R E193^45.52A): 126 ± 6.2%
Emax (KISS1R mutants; HEK293, KISS1R H309^7.39A): 89.6 ± 1%
Emax (KISS1R mutants; HEK293, KISS1R Q122^3.32A): 12.8 ± 0.76%
EC50 (KISS1R mutants; KISS1R E193^45.52A): 10 nM
EC50 (KISS1R mutants; KISS1R H309^7.39A): 17.4 nM
EC50 (KISS1R mutants; KISS1R Q122^3.32A): 5.13 nM

pancreatic polypeptide [PP]
role of hydrogen bond of Tyr36 with Q^5.46 in activity (NPY1R and NPY4R): crucial for NPY/PP activity
role of amide-surrounding residues (C^2.57, T^2.61, Q^3.32, Q/H^7.39) in activity (NPY1R and NPY4R): critical for 26RFa and NPY/PP activities

26RFa (1–18): N-terminal segment of native 26RFa lacking the C-terminal octapeptide (QDEGSEATGFLPAAGEKT; QRF-amide; UniProt P83859 91-108, looked up, fragment)
ability to activate the receptor (QRFPR; 26RFa (1–18), lacks the C-terminal octapeptide): loses its ability to activate the receptor

TPDINPAWYASRGIRPVGRF-NH2 [PrRP-20, prolactin-releasing peptide]
EC50 (PrRPR (WT)): 1.1 nM
Emax (PrRPR (WT)): 100 ± 3.9%
Emax (PrRPR mutants; HEK293, PrRPR D302^6.59A): 124 ± 8.9%
Emax (PrRPR mutants; HEK293, PrRPR E213^45.52A): 27.7 ± 0.37%
Emax (PrRPR mutants; HEK293, PrRPR H321^7.39A): 19.7 ± 0.75%
Emax (PrRPR mutants; HEK293, PrRPR Q141^3.32A): 49.2 ± 1.2%
EC50 (PrRPR mutants; PrRPR D302^6.59A): 11.2 nM
EC50 (PrRPR mutants; PrRPR E213^45.52A): 115 nM
EC50 (PrRPR mutants; PrRPR H321^7.39A): 14.8 nM
EC50 (PrRPR mutants; PrRPR Q141^3.32A): 1.05 nM

26RFa from rats: 26RFa from rats; rat 26RFa (GenScript) used for the complex
potency, rat vs human 26RFa (QRFPR; calcium mobilization): slightly more potent than that from humans

Neuropeptide Y [NPY]
role of hydrogen bond of Tyr36 with Q^5.46 in activity (NPY1R and NPY4R): crucial for NPY/PP activity
role of amide-surrounding residues (C^2.57, T^2.61, Q^3.32, Q/H^7.39) in activity (NPY1R and NPY4R): critical for 26RFa and NPY/PP activities
